Laboratory results from US10112937B2, “P2X7 modulators and methods of use” (Janssen Pharmaceutica NV, priority 2013, dated 2018).

The compounds below were run against human P2X7 (Homo sapiens (Human), UniProt Q99572) (assay: P2X7 antagonism in human PBMCs (IL-1β release after LPS + Bz-ATP, ELISA)). Details: human PBMCs, test compound 1 μM.
Type: cell-based

Chain of human P2X7 (Q99572 whole entry): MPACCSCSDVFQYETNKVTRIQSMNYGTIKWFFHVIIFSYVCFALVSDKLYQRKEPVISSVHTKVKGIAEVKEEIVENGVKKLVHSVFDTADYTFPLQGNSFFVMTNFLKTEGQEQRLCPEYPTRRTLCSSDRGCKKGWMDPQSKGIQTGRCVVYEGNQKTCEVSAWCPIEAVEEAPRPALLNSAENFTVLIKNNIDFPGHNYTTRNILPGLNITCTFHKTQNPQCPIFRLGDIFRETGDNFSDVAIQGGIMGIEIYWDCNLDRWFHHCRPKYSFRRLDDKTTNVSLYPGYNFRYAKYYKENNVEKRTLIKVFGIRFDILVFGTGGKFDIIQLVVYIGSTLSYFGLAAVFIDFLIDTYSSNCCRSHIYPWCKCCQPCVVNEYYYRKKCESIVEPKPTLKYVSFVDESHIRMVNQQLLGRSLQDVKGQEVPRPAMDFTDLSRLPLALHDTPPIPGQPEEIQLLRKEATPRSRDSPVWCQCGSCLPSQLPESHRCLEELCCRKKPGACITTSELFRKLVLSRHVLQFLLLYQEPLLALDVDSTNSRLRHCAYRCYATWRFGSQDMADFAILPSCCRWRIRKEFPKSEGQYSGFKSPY

Point of comparison: `O=C(c1cccc2c1OC(F)(F)O2)N1CCc2c(ncn2-c2ccccc2)C1` [Example 50, 5-[(2,2-Difluoro-1,3-benzodioxol-4-yl)carbonyl]-1-phenyl-4,5,6,7-tetrahydro-1H-imidazo[4,5-c]pyridine], “PBMC 1 μM (% control)” value 96.0 % control. Against it:
- Cn1nc2c(c1-c1ccccn1)CCN(C(=O)c1cccc(C(F)(F)F)c1Cl)C2 [Example 92, 6-{[2-Chloro-3-(trifluoromethyl)phenyl]carbonyl}-2-methyl-3-pyridin-2-yl-4,5,6,7-tetrahydro-2H-pyrazolo[3,4-c]pyridine] — lower, 2.7 % control
- O=C(c1cccc(C(F)(F)F)c1F)N1CCc2c(nnn2-c2ccccn2)C1 [Example 123, (2-Fluoro-3-(trifluoromethyl)phenyl)(1-(pyridin-2-yl)-6,7-dihydro-1H-[1,2,3]triazolo[4,5-c]pyridin-5(4H)-yl)methanone] — lower, 22.0 % control
- Cn1nc2c(c1-c1ccc(F)cc1)CCN(C(=O)c1cccc(C(F)(F)F)c1Cl)C2 [Example 105, 6-{[2-Chloro-3-(trifluoromethyl)phenyl]carbonyl}-3-(4-fluorophenyl)-2-methyl-4,5,6,7-tetrahydro-2H-pyrazolo[3,4-c]pyridine] — lower, 51.0 % control
- Cn1nc(-c2ccccc2)c2c1CN(C(=O)c1cccc(Cl)c1Cl)CC2.Cn1nc2c(c1-c1ccccc1)CCN(C(=O)c1cccc(Cl)c1Cl)C2 [Example 101, 6-[(2,3-Dichlorophenyl)carbonyl]-1-methyl-3-phenyl-4,5,6,7-tetrahydro-1H-pyrazolo[3,4-c]pyridine-6-[(2,3-dichlorophenyl)carbonyl]-2-methyl-3-phenyl-4,5,6,7-tetrahydro-2H-pyrazolo[3,4-c]pyridine (1:1)] — lower, 7.6 % control

Same assay, conditions: human PBMCs, test compound 10 μM

Point of comparison: `C[C@H]1c2nnn(-c3ccn(CCF)n3)c2CCN1C(=O)c1cccc(C(F)(F)F)c1Cl` (single isomer, unassigned) [Example 172, (S*)-(2-Chloro-3-(trifluoromethyl)phenyl)(1-(1-(2-fluoroethyl)-1H-pyrazol-3-yl)-4-methyl-6,7-dihydro-1H-[1,2,3]triazolo[4,5-c]pyridin-5(4H)-yl)methanone], “PBMC 10 μM (% control)” value −6.0 % control. Against it:
- CC1Cc2c(nnn2-c2ccccn2)CN1C(=O)c1cccc(Cl)c1Cl (stereo not shown) [Example 120, 5-[(2,3-Dichlorophenyl)carbonyl]-6-methyl-1-pyridin-2-yl-4,5,6,7-tetrahydro-1H-[1,2,3]triazolo[4,5-c]pyridine] — higher, −3.8 % control
- Cc1c(C(=O)N2Cc3nnn(-c4ncc(F)cn4)c3C[C@H]2C)ccnc1C(F)(F)F (single isomer, unassigned) [Example 187, (S*)-(1-(5-fluoropyrimidin-2-yl)-6-methyl-6,7-dihydro-1H-[1,2,3]triazolo[4,5-c]pyridin-5(4H)-yl)(3-methyl-2-(trifluoromethyl)pyridin-4-yl)methanone] — higher, −0.6 % control
- C[C@@H]1c2ncn(-c3ccccn3)c2CCN1C(=O)c1cccc(Cl)c1Cl (single isomer, unassigned) [Example 192, (R*)-(2,3-Dichlorophenyl)(4-methyl-1-(pyridin-2-yl)-6,7-dihydro-1H-imidazo[4,5-c]pyridin-5(4H)-yl)methanone] — lower, −6.3 % control
- CC1Cc2c(-c3ccnn3C)nn(C)c2CN1C(=O)c1cccc(C(F)(F)F)c1Cl (stereo not shown) [Example 266, (2-chloro-3-(trifluoromethyl)phenyl)(1,5-dimethyl-3-(1-methyl-1H-pyrazol-5-yl)-4,5-dihydro-1H-pyrazolo[3,4-c]pyridin-6(7H)-yl)methanone] — higher, 5.8 % control
- O=C(c1cccc(C(F)(F)F)c1Cl)N1CCc2c(nnn2-c2cccc(F)n2)C1 [Example 135, (2-Chloro-3-(trifluoromethyl)phenyl)(1-(6-fluoropyridin-2-yl)-6,7-dihydro-1H-[1,2,3]triazolo[4,5-c]pyridin-5(4H)-yl)methanone] — higher, 1.7 % control
- O=C(c1cccc(C(F)(F)F)c1Cl)N1CCc2c(-c3cccnc3)n[nH]c2C1 [Example 96, 6-{[2-Chloro-3-(trifluoromethyl)phenyl]carbonyl}-3-pyridin-3-yl-4,5,6,7-tetrahydro-2H-pyrazolo[3,4-c]pyridine] — higher, 3.6 % control
- C[C@@H]1c2nnn(-c3ncc(F)cn3)c2CCN1C(=O)c1cccc(C(F)(F)F)c1Cl [Example 158, (R)-(2-chloro-3-(trifluoromethyl)phenyl)(1-(5-fluoropyrimidin-2-yl)-4-methyl-6,7-dihydro-1H-[1,2,3]triazolo[4,5-c]pyridin-5(4H)-yl)methanone] — higher, 1.1 % control
- CC1c2nnn(-c3ncccn3)c2CCN1C(=O)c1ccc(Cl)cc1Cl (stereo not shown) [Example 283, (2,4-dichlorophenyl)(4-methyl-1-(pyrimidin-2-yl)-6,7-dihydro-1H-[1,2,3]triazolo[4,5-c]pyridin-5(4H)-yl)methanone] — lower, −6.3 % control
- CC1Cc2c(nnn2-c2ncc(F)cn2)CN1C(=O)c1cccc(Cl)c1Cl (stereo not shown) [Example 203, 5-[(2,3-Dichlorophenyl)carbonyl]-1-(5-fluoropyrimidin-2-yl)-6-methyl-4,5,6,7-tetrahydro-1H-[1,2,3]triazolo[4,5-c]pyridine] — higher, 0.6 % control
- C[C@@H]1Cc2c(nnn2-c2ncc(F)cn2)CN1C(=O)c1ccc(F)c(Cl)c1Cl (single isomer, unassigned) [Example 214, (6R*)-5-[(2,3-Dichloro-4-fluorophenyl)carbonyl]-1-(5-fluoropyrimidin-2-yl)-6-methyl-4,5,6,7-tetrahydro-1H-[1,2,3]triazolo[4,5-c]pyridine] — higher, 8.2 % control
- C[C@@H]1Cc2c(nnn2-c2cc(F)ccn2)CN1C(=O)c1cccc(C(F)(F)F)c1Cl (single isomer, unassigned) [Example 198, (6R*)-5-{[2-Chloro-3-(trifluoromethyl)phenyl]carbonyl}-1-(4-fluoropyridin-2-yl)-6-methyl-4,5,6,7-tetrahydro-1H-[1,2,3]triazolo[4,5-c]pyridine] — higher, 1.3 % control
- CC1c2nnn(-c3cncnc3)c2C=CN1C(=O)c1cccc(C(F)(F)F)c1Cl (stereo not shown) [Example 236, (2-Chloro-3-(trifluoromethyl)phenyl)(4-methyl-1-(pyrimidin-5-yl)-1H-[1,2,3]triazolo[4,5-c]pyridin-5(4H)-yl)methanone] — higher, 9.3 % control
- Cc1cc(-n2nnc3c2CCN(C(=O)c2ccnc(C(F)(F)F)c2F)[C@H]3C)ncc1F (single isomer, unassigned) [Example 369, (S*)-(3-fluoro-2-(trifluoromethyl)pyridin-4-yl)(1-(5-fluoro-4-methylpyridin-2-yl)-4-methyl-6,7-dihydro-1H-[1,2,3]triazolo[4,5-c]pyridin-5(4H)-yl)methanone] — higher, 74.5 % control
- Cc1ccnc(-n2nnc3c2CCN(C(=O)c2ccnc(C(F)(F)F)c2Cl)C3C)c1 (stereo not shown) [Example 358, (3-chloro-2-(trifluoromethyl)pyridin-4-yl)(4-methyl-1-(4-methylpyridin-2-yl)-6,7-dihydro-1H-[1,2,3]triazolo[4,5-c]pyridin-5(4H)-yl)methanone] — higher, −0.7 % control
- C[C@H]1c2nnn(-c3cc(F)ccn3)c2CCN1C(=O)c1cccc(C(F)(F)F)c1Cl (single isomer, unassigned) [Example 149, (S*)-(2-Chloro-3-(trifluoromethyl)phenyl)(1-(4-fluoropyridin-2-yl)-4-methyl-6,7-dihydro-1H-[1,2,3]triazolo[4,5-c]pyridin-5(4H)-yl)methanone] — higher, 3.5 % control
- COc1cccnc1-n1nnc2c1CCN(C(=O)c1cccc(C(F)(F)F)c1Cl)C2C (stereo not shown) [Example 260, (2-Chloro-3-(trifluoromethyl)phenyl)(1-(3-methoxypyridin-2-yl)-4-methyl-6,7-dihydro-1H-[1,2,3]triazolo[4,5-c]pyridin-5(4H)-yl)methanone] — higher, 1.4 % control
- CCc1nc2c(n1-c1ccccc1)CCN(C(=O)c1cccc(C(F)(F)F)c1Cl)C2C (stereo not shown) [Example 184, (2-Chloro-3-(trifluoromethyl)phenyl)(2-ethyl-4-methyl-1-phenyl-6,7-dihydro-1H-imidazo[4,5-c]pyridin-5(4H)-yl)methanone] — higher, −0.7 % control
- CC1Cc2c(nnn2-c2ncc(F)cn2)CN1C(=O)c1ccc(F)c(Cl)c1Cl (stereo not shown) [Example 213, 5-[(2,3-Dichloro-4-fluorophenyl)carbonyl]-1-(5-fluoropyrimidin-2-yl)-6-methyl-4,5,6,7-tetrahydro-1H-[1,2,3]triazolo[4,5-c]pyridine] — higher, 0.3 % control
- CC1c2nnn(-c3ncc(F)cn3)c2CCN1C(=O)c1cccc(C(F)(F)F)c1F (stereo not shown) [Example 175, (2-fluoro-3-(trifluoromethyl)phenyl)(1-(5-fluoropyrimidin-2-yl)-4-methyl-6,7-dihydro-1H-[1,2,3]triazolo[4,5-c]pyridin-5(4H)-yl)methanone] — higher, 4.5 % control
- CC1c2nnn(-c3ncccn3)c2CCN1C(=O)c1ccc(Cl)cc1F (stereo not shown) [Example 275, (4-chloro-2-fluorophenyl)(4-methyl-1-(pyrimidin-2-yl)-6,7-dihydro-1H-[1,2,3]triazolo[4,5-c]pyridin-5(4H)-yl)methanone] — lower, −8.3 % control
- Cc1ccc(-n2nnc3c2CCN(C(=O)c2cccc(Cl)c2Cl)C3C)nc1 (stereo not shown) [Example 336, (2,3-dichlorophenyl)(4-methyl-1-(5-methylpyridin-2-yl)-6,7-dihydro-1H-[1,2,3]triazolo[4,5-c]pyridin-5(4H)-yl)methanone] — higher, −0.5 % control
- CC1c2nnn(-c3ncccn3)c2CCN1C(=O)c1cccc(C(F)(F)F)c1Cl (single isomer, unassigned) [Example 88, (4R*)-5-{[2-Chloro-3-(trifluoromethyl)phenyl]carbonyl}-4-methyl-1-pyrimidin-2-yl-4,5,6,7-tetrahydro-1H-[1,2,3]triazolo[4,5-c]pyridine] — higher, 18.2 % control

Same assay, conditions: test compound 1 μM, LPS 30 ng/ml + 0.5 mM Bz-ATP

In the case of `Cn1nc(-c2ccccc2)c2c1CN(C(=O)c1cccc(Cl)c1Cl)CC2.Cn1nc2c(c1-c1ccccc1)CCN(C(=O)c1cccc(Cl)c1Cl)C2` [Example 101, 6-[(2,3-Dichlorophenyl)carbonyl]-1-methyl-3-phenyl-4,5,6,7-tetrahydro-1H-pyrazolo[3,4-c]pyridine-6-[(2,3-dichlorophenyl)carbonyl]-2-methyl-3-phenyl-4,5,6,7-tetrahydro-2H-pyrazolo[3,4-c]pyridine (1:1)], the “PBMC 1 μM (% control)” value is reported as 7.6 % control.

Same assay, conditions: test compound 10 μM, LPS 30 ng/ml + 0.5 mM Bz-ATP

Point of comparison: `Cc1c(C(=O)N2Cc3nnn(-c4ncc(F)cn4)c3C[C@H]2C)ccnc1C(F)(F)F` (single isomer, unassigned) [Example 187, (S*)-(1-(5-fluoropyrimidin-2-yl)-6-methyl-6,7-dihydro-1H-[1,2,3]triazolo[4,5-c]pyridin-5(4H)-yl)(3-methyl-2-(trifluoromethyl)pyridin-4-yl)methanone], “PBMC 10 μM (% control)” value −0.6 % control. Against it:
- C[C@@H]1c2ncn(-c3ccccn3)c2CCN1C(=O)c1cccc(Cl)c1Cl (single isomer, unassigned) [Example 192, (R*)-(2,3-Dichlorophenyl)(4-methyl-1-(pyridin-2-yl)-6,7-dihydro-1H-imidazo[4,5-c]pyridin-5(4H)-yl)methanone] — lower, −6.3 % control
